What was measured:
Type in all cases: cell-based
[1] = tested on: Col1a1 gene expression, primary human hepatic stellate cells; test: Col1a1 gene expression in TGFβ1-stimulated primary human hepatic stellate cells; conditions: for Col1a1 Fold Expression Relative to Control, Mean: normalized to Gapdh
Procedure: (§1) Primary human hepatic stellate cells were obtained from Samsara Sciences. Cells were grown in Complete HSC Medium to ˜80% confluence in T75 or T150 flasks below passage 10 were seeded into sterile, collagen I coated, 96-well optical plastic microplates (ThermoScientific, 152036) and incubated overnight at 37° C., 5% CO2 in a humidified incubator in DMEM with 2% Fetal Bovine Serum and 1% Antibiotic-Antimycotic. After the overnight incubation, plates are washed and pretreated with medium±single amino acid dropout, 1×HMDB DMEM±supplemental amino acid dose for 10.5 hours. After 10.5 hour pretreatment, the same pretreatment medium supplemented with 3 ng/mL TGFβ1, was applied and incubated for 24 hours at 37° C., 5% CO2. After 24 hour stimulus, supernatant was removed, RNA was extracted and gene expression was evaluated using the ΔΔCq method within each single amino acid dropout and supplementation by normalizing to its own 1×HMDB concentration.

[2] = tested on: procollagen Iα1 secretion, primary human hepatic stellate cells; test: Procollagen Iα1 secretion by TGFβ1-stimulated primary human hepatic stellate cells, ELISA
Procedure: as §1
Human Procollagen 1α1 was measured from the supernatant by ELISA (Human ProCollagen I alpha 1 DuoSet ELISA, R&D Systems) at 1/100 dilution in 1× Reagent Diluent (Reagent Ancillary Kit 2, R&D Systems).
Tables 32, 33, 33-1, 33-2, 33-3, and 33-4 show the fold change in procollagen Iα1 in primary human hepatic stellate cells from three different healthy donors normalized to their respective baseline amino acid conditions. Statistical significance calculated by one-way

[3] = tested on: Hsp47 gene expression, primary human hepatic stellate cells; test: Hsp47 gene expression in TGFβ1-stimulated primary human hepatic stellate cells; conditions: for Hsp47 Fold Expression Relative to Control, Mean: first donor, normalized to Gapdh, single amino acid
Procedure: Primary human hepatic stellate cells were obtained from Samsara Sciences based on the following criteria for selecting donors: adult age (between 18 and 50 years), normal BMI (>18.5 and <25), and absence of confounding liver disease. Cells grown in Complete HSC Medium to ˜80% confluence in T75 or T150 flasks below passage 10 were seeded into sterile, collagen I coated, 96-well optical plastic microplates (ThermoScientific, 152036) at 6000 cells per well (1250 cells per cm2) and incubated overnight at 37° C., 5% CO2 in a humidified incubator in DMEM with 2% Fetal Bovine Serum and 1% Antibiotic-Antimycotic.
After the overnight incubation, plates were removed from the incubator and the medium was gently pipetted off and washed twice with 150 μL per well DPBS. The DPBS was removed and the pretreatment medium (±single amino acid dropout, 1×HMDB DMEM+1% Antibiotic-Antimycotic, 10 mM HEPES, ±supplemental amino acid dose; see experiment for medium composition) was applied to the cells at 150 μL per well. Plates were returned to the incubator for 10.5 hours.
After 10.5 hour pretreatment, the medium was removed from the cells, and the same pretreatment medium, now supplemented with 3 ng/mL TGFβ1, was applied. Each plate contained 3 ng/mL TGFβ1 in 1× human plasma amino acid (HMDB or PAA) concentration medium, 0 ng/mL in 1×HMDB, and 3 ng/mL TGFβ1+20 μM Silybin in 1×HMDB to serve as controls. Plates were then incubated for 24 hours at 37° C., 5% CO2.
After 24 hour stimulus, supernatant was removed and frozen at −80° C. in two separate aliquots. The cells were then washed with 125 μL per well Buffer FCW (FastLane Cell Multiplex NR Kit, Qiagen, 216713). The wash buffer was immediately removed and 50 μL of Cell Processing Mix (containing genomic DNA Wipeout buffer) was applied to lyse cells, incubating for 10 minutes at room temperature. RNA lysate was then transferred to 96-well qPCR plates, sealed, and gDNA was digested on thermal cycler at 75° C. for 5 minutes. RNA lysate was frozen at −80° C.
Each 20 μL one-step RT-qPCR reaction contained 4 μL of RNA lysate. Gene expression of Hsp47, and Gapdh were multiplexed using the HEX, and FAM fluorescent channels, respectively, with commercially available primer-probe mixes (the Human Hsp47 Primer-Probe Set, HEX; and the Human Gapdh Primer-Probe Set, FAM from IDT). Gene expression was evaluated using the ΔΔCq method within each single amino acid dropout and supplementation by normalizing to its own 1×HMDB concentration.

[4] = first donor, 234 μM (baseline, reference)
[5] = primary human hepatic stellate cells, three healthy donors, TGFβ1 3 ng/mL 24 h, summary in words

CC(C)[C@H](N)C(=O)O [VAL, valine]
Col1a1 Fold Expression Relative to Control, Mean ([1]; Table 31-4, second donor, 234 μM (baseline, reference)): 1.01 fold | Col1a1 Fold Expression Relative to Control, Mean ([1]; Table 31-4, second donor, 4684 μM): 1.22 fold | Col1a1 Fold Expression Relative to Control, Mean ([1]; Table 31-4, second donor, 11710 μM): 1.27 fold | Col1a1 Fold Expression Relative to Control, Mean ([1]; Table 31-4, second donor, 23420 μM): 1.13 fold | Col1a1 Fold Expression Relative to Control, Mean [1, 4]: 1.00 fold | Col1a1 Fold Expression Relative to Control, Mean ([1]; first donor, 4684 μM): 1.05 fold | Col1a1 Fold Expression Relative to Control, Mean ([1]; first donor, 11710 μM): 1.09 fold | Col1a1 Fold Expression Relative to Control, Mean ([1]; first donor, 23420 μM): 1.00 fold | Col1a1 gene expression [1, 5]: did not significantly change | Col1a1 Fold Expression Relative to Control, Mean ([1]; second donor, 234 μM (baseline, reference)): 1.00 fold | Col1a1 Fold Expression Relative to Control, Mean ([1]; second donor, 4684 μM): 1.05 fold | Col1a1 Fold Expression Relative to Control, Mean ([1]; second donor, 11710 μM): 0.98 fold | Col1a1 Fold Expression Relative to Control, Mean ([1]; second donor, 23420 μM): 1.05 fold | Procollagen Ia1 Secretion (Fold Change of 1X), Mean [2, 4]: 1.0000 fold | Procollagen Ia1 Secretion (Fold Change of 1X), Mean ([2]; first donor, 4684 μM): 1.1203 fold | Procollagen Ia1 Secretion (Fold Change of 1X), Mean ([2]; first donor, 11710 μM): 1.2069 fold | Procollagen Ia1 Secretion (Fold Change of 1X), Mean ([2]; first donor, 23420 μM): 1.2139 fold | procollagen Iα1 secretion [2, 5]: significantly increased procollagen Iα1 secretion in only one of two donors | Procollagen Ia1 Secretion (Fold Change of 1X), Mean ([2]; second donor, single amino acid, 234 μM (1X reference)): 1.0000 fold change | Procollagen Ia1 Secretion (Fold Change of 1X), Mean ([2]; second donor, single amino acid, 4684 μM): 1.2865 fold change | Procollagen Ia1 Secretion (Fold Change of 1X), Mean ([2]; second donor, single amino acid, 11710 μM): 1.2877 fold change | Procollagen Ia1 Secretion (Fold Change of 1X), Mean ([2]; second donor, single amino acid, 23420 μM): 1.3068 fold change | Procollagen Ia1 Secretion (Fold Change of 1X), Mean ([2]; third donor, single amino acid, 234 μM (1X reference)): 1.0000 fold change | Procollagen Ia1 Secretion (Fold Change of 1X), Mean ([2]; third donor, single amino acid, 4684 μM): 1.0428 fold change | Procollagen Ia1 Secretion (Fold Change of 1X), Mean ([2]; third donor, single amino acid, 11710 μM): 1.0498 fold change | Procollagen Ia1 Secretion (Fold Change of 1X), Mean ([2]; third donor, single amino acid, 23420 μM): 1.1139 fold change | Hsp47 Fold Expression Relative to Control, normalized to Gapdh (Mean) ([3]; Table 38, second donor, 234 μM (baseline 1×HMDB concentration)): 1.00 fold | Hsp47 Fold Expression Relative to Control, normalized to Gapdh (Mean) ([3]; Table 38, second donor, 4684 μM): 1.02 fold | Hsp47 Fold Expression Relative to Control, normalized to Gapdh (Mean) ([3]; Table 38, second donor, 11710 μM): 0.99 fold | Hsp47 Fold Expression Relative to Control, normalized to Gapdh (Mean) ([3]; Table 38, second donor, 23420 μM): 0.89 fold | Hsp47 Fold Expression Relative to Control, normalized to Gapdh (Mean) ([3]; Table 40, second donor (so in the source), 234 μM (baseline 1×HMDB concentration)): 1.00 fold | Hsp47 Fold Expression Relative to Control, normalized to Gapdh (Mean) ([3]; Table 40, second donor (so in the source), 4684 μM): 0.97 fold | Hsp47 Fold Expression Relative to Control, normalized to Gapdh (Mean) ([3]; Table 40, second donor (so in the source), 11710 μM): 0.95 fold | Hsp47 Fold Expression Relative to Control, normalized to Gapdh (Mean) ([3]; Table 40, second donor (so in the source), 23420 μM): 0.95 fold | Hsp47 Fold Expression Relative to Control, Mean ([3]; 234 μM (1X reference)): 1.00 fold | Hsp47 Fold Expression Relative to Control, Mean ([3]; 4684 μM): 1.05 fold | Hsp47 Fold Expression Relative to Control, Mean ([3]; 11710 μM): 1.05 fold | Hsp47 Fold Expression Relative to Control, Mean ([3]; 23420 μM): 1.00 fold | Hsp47 gene expression [3, 5]: did not significantly change
